In series [1] the test system is hypertension and congestive heart failure. The note with it: cited from earlier work.
The conditions of series [2]: cited from earlier work.
For a further series, the system named is blood pressure. To be noted: after intravenous administration; due to its activity as an angiotensin receptor agonist; cited from earlier work.
The test system of series [3] is angiotensin II receptor. To be noted: cited from earlier work.
Series [4] has as its system renal artery ligated rats. Kind of series: In vivo blood pressure lowering in renal artery ligated hypertensive rats. More on the design: species or system rat. The note with it: dose of 30 mg/kg.
The target of series [5] is T1, angiotensin II receptor (Oryctolagus cuniculus, UniProt P34976).
T1 construct: Main abdominal aortas were removed and placed in Krebs-Henseleit buffer; from tissue; host or cells: main abdominal aorta rings (3 mm) of female New Zealand White rabbits
T1 sequence (P34976 1-359): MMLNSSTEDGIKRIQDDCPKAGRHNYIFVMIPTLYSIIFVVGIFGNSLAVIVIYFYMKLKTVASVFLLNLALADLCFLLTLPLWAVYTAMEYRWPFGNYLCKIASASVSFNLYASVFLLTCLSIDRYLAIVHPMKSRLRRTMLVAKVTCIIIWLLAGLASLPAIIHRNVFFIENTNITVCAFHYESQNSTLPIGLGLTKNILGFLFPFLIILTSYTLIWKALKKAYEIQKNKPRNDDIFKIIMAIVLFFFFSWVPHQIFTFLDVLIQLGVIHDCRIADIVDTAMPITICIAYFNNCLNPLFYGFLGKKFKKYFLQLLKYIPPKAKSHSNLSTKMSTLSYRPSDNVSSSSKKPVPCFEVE
Nature of the series: Angiotensin II functional assay: antagonism of contraction of rabbit aorta (isolated tissue, Schild analysis). To be noted: antagonist incubated 30 minutes, negative logarithm of antagonist concentration that requires doubling of the angiotensin II concentration; for Kb: read-out: pA2 (converted). More on the design: species or system rabbit (female New Zealand White). Here is the method:
Antagonism of Contraction of Rabbit Aorta The protocol reported by A. T Chiu and […]. Wong, et al. Hypertension, 13, 489-497 (1989)) was followed with a few modifications. Female New Zealand White rabbits weighing 2-5 kg were sedated with carbon dioxide and then sacrificed. Main abdominal aortas were removed and placed in Krebs-Henseleit buffer at room temperature. The tissues were cleaned of extraneous connective tissue, cut into 3 mm rings, and suspended within a 10 mL tissue bath. All dilutions of peptide preparations were made with 0.3% aqueous BSA. The tissues were primed with 55 mM potassium chloride. Tissues were pre-loaded with 1 g of tension. Tension was recorded on a model 7 Grass polygraph using FT03 transducers. At the end of the equilibrium period, a control cumulative concentration-contractile response curve for angiotensin II (A II: 1×10^-10 -10^-8 M) was obtained. The tissue was washed several times until the baseline was reached. Forty five minutes later, test compound (antagonist) was added and the tissue was incubated for 30 minutes. The concentration-response curve for A II was then repeated in the presence of the test compound. One dose of antagonist was tested per tissue only. […] All responses to the control agonist were calculated as a percentage of the maximum response.

The source of these data is US5250548A, “Angiotensin II receptor antagonists” (Abbott Laboratories, priority 1992, dated 1993).

Structures are written as SMILES. Structures can show the parent of a compound that is named as a salt.

With `COc1ccc(C[C@H](NC(=O)CC(C)(C)N)C(=O)N[C@@H](Cc2cnc[nH]2)C(=O)N[C@@H](CC2CCCCC2)[C@@H](O)[C@@H](O)CC(C)C)cc1` [enalkiren], the clinical efficacy result in series [1] was “clinical efficacy in treating hypertension and congestive heart failure”.
As for `CCOC(=O)[C@H](CCc1ccccc1)N[C@@H](C)C(=O)N1CCC[C@H]1C(=O)O` [enalapril], the clinical efficacy entry in series [1] is “clinical efficacy in treating hypertension and congestive heart failure”.
As for `CNCC(=O)N[C@@H](CCCN=C(N)N)C(=O)N[C@H](C(=O)N[C@@H](Cc1ccc(O)cc1)C(=O)N[C@H](C(=O)N[C@@H](Cc1cnc[nH]1)C(=O)N1CCC[C@H]1C(=O)N[C@@H](C)C(=O)O)C(C)C)C(C)C` [saralasin, [Sar^1,Ala^8] angiotensin II], the oral bioavailability result in series [2] is on record as “very poor oral bioavailability”. The “effect on blood pressure” value in the series with blood pressure is reported as “initial increase in blood pressure after intravenous administration”. The “antagonism of the actions of angiotensin II” value in the series on angiotensin II receptor [3] is on record as “potent antagonist of the actions of angiotensin II”.
Take `CCCN(Cc1ccc(-c2ccccc2-c2nnn[nH]2)cc1)c1ncccc1C(=O)O` [Example 88, 2-{N-Propyl-N-[(2'-[1H-tetrazol-5-yl]biphenyl-4-yl)methyl]amino}pyridine-3-carboxylic acid]: the “reduction in mean arterial blood pressure (MAP)” value in series [4] was “caused a reduction in mean arterial blood pressure (MAP)”.
Regarding `CCCN(Cc1ccc(-c2ccccc2-c2nn[nH]n2)cc1)c1ncccc1C(O)CC(=O)O` (centres unmarked) [Example 140, 3-(2-Carboxy-1-hydroxyethyl)-2-{N-propyl-N-[(2'-[1H-tetrazol-5-yl]biphenyl-4-yl)methyl]amino}pyridine], the Kb at angiotensin II receptor [5] was 1.45 nM.
The same measure, in the same setting: as for `CCCN(Cc1ccc(-c2ccccc2-c2nn[nH]n2)cc1)c1ncccc1C(=O)NS(=O)(=O)c1ccccc1` [Example 203, 2-{N-Propyl-N-[(2'-[1H-tetrazol-5-yl]biphenyl-4-yl)methyl]amino}pyridine-3-(N-benzenesulfonyl)carboxamide], the figure is 2.24 nM; as for `CCCCN(Cc1ccc(-c2ccccc2-c2nn[nH]n2)cc1)c1ncccc1C(=O)O` [Example 229, 2-{N-Butyl-N-[(2'-[1H-tetrazol-5-yl]biphenyl-4-yl)methyl]amino}pyridine-3-carboxylic acid], 0.339 nM.
Turning to `C[C@H](CS)C(=O)N1CCC[C@H]1C(=O)O` [captopril], the clinical efficacy result in series [1] was “clinical efficacy in treating hypertension and congestive heart failure”.
Take `CCCN(Cc1ccc(-c2ccccc2-c2nn[nH]n2)cc1)c1ncccc1C(O)C(F)(F)C(=O)OCC` (centres unmarked) [Example 135, 3-(2.2-Difluoro-2-ethoxycarbonyl-1-hydroxyethyl)-2-{N-propyl-N-[(2'-[1H-tetrazol-5-yl]biphenyl-4-yl)methyl]amino}pyridine]: the Kb on angiotensin II receptor [5] was 3.39 nM.
On the same count and under the same terms, then `CCCCN(Cc1ccc(-c2ccccc2-c2nnn[nH]2)cc1)c1ncncc1C(=O)O` [Example 53, 4-{N-butyl-N-[(2'-[1H-tetrazol-5-yl]biphenyl-4-yl)methyl]amino}pyrimidine-5-carboxylic acid hydrochloride], with 0.126 nM.
On the same count and under the same terms, as for `CCCN(Cc1ccc(-c2ccccc2-c2nn[nH]n2)cc1)c1nc(C(F)(F)F)ncc1C(=O)O` [Example 114, 2-Trifluoromethyl-4-{N-propyl-N-[(2'-[1H-tetrazol-5-yl]biphenyl-4-yl)methyl]amino}pyrimidine-5-carboxylic acid], the figure is 1.62 nM.
Still for that read-out and setting: then `CCCCN(Cc1ccc(-c2ccccc2-c2nn[nH]n2)cc1)c1nccnc1C(=O)O` [Example 157, 3-{N-Butyl-N-[(2'-[1H-tetrazol-5-yl]biphenyl-4-yl)methyl]amino}pyrazine-2-carboxylic acid], with 0.135 nM; and `CCCCN(Cc1ccc(-c2ccccc2-c2nn[nH]n2)cc1)c1nnc(Cl)cc1C(=O)O` [Example 168, 6-{N-Butyl-N-[(2'-[1H-tetrazol-5-yl]biphenyl-4-yl)methyl]amino}-3-chloropyridazine-5-carboxylic acid], with 0.851 nM.
For orientation: pA2 means the negative logarithm of the molar antagonist concentration that doubles the agonist concentration needed for the same response. In the case of `O=C(O)c1cccnc1N(Cc1ccc(-c2ccccc2-c2nn[nH]n2)cc1)CC1CC1` [Example 206, 2-{N-Cyclopropylmethyl-N-[ (2'-[1H-tetrazol-5-yl]biphenyl-4-yl)methyl]amino}pyridine-3-carboxylic acid], on angiotensin II receptor [5], the pA2 worked out at 8.93.
Consider `CCCCN(Cc1ccc(-c2ccccc2-c2nnn[nH]2)cc1)c1ncncc1C(=O)OC(C)OC(=O)C1CCN(C)CC1` (centres unmarked) [Example 121, 1-(1-Methylpiperidin-4-ylcarbonyloxy)ethyl 4-{N-butyl-N-[(2'-[1H-tetrazol-5-yl]biphenyl-4-yl)methyl]amino}pyrimidine-5-carboxylate], for which, at angiotensin II receptor [5], the Kb is 0.257 nM.
